Data on nine molecules can be found in patent publication US4937239A, “Azabicycloalkane oxime & azabicycloalkene oxime muscarinic agents” (Warner-Lambert Company, priority 1989, dated 1990).

The conditions of experiment [1]: in vivo; cited from earlier work.
Experiment [2] concerns the target central muscarinic binding site. Kind of experiment: RCMD screening assay: inhibition of radio-labeled cis-methyldioxolane (agonist) binding, rat cerebral cortex tissue. As to conditions: R3 is hydrogen, double bond: No; for IC50: rat cerebral cortex; for % Inhib. RCMD: @ 10^-7 M. As to the method: (§1) The biological activity of compounds of the present invention was evaluated using a number of tests. The activity of compounds of this invention as central muscarinic binding site agonists and antagonists was measured. In the RQNB screening assay, which is described more fully by Mark Watson, et al, J. Pharmocol. Exp. Ther., 237 (2): 411 (1986), rat cerebral cortex tissue was treated with radio-labeled quinuclidinyl benzilate, a known muscarinic binding site antagonist. The % inhibition concentration of test compound required to inhibit 50% of the binding of this muscarinic antagonist was then determined.
Similarly, in the RCMD screening assay, described more fully by T. W. Vickeroy, et al, J. Pharmacol. Exp. Ther., 229 (3): 747 (1984), rat cerebral cortex tissue was treated with radio-labeled cis-methyldioxolane,a known muscarinic binding site agonist. The concentrations of test compounds required to inhibit 50% of the binding of this muscarinic agonist were then determined.

For experiment [3] the target is unchanged. Kind of experiment: RQNB screening assay: inhibition of radio-labeled quinuclidinyl benzilate (antagonist) binding, rat cerebral cortex tissue. As to conditions: R3 is hydrogen, double bond: No; for IC50: rat cerebral cortex; for % Inhib. RQNB: @ 10^-6 M. As to the method:
as §1

For a further experiment, the system named is laboratory rats. The experiment in a line: SIS, scopolamine induced swimming test. As to conditions: for reversal of scopolamine-induced swimming hyperactivity: rats given scopolamine. The class given is in vivo, rat. The method, then: In a second screening assay, designated SIS, the scopolamine induced swimming test, the ability of representative compounds of the present invention to reverse the hyperactive swimming behavior of laboratory rats given scopolamine was assessed. In this test, untreated rats will generally swim distances between 20 to 30 meters during a five minute test period. […] The effect of scopolamine is centrally mediated; the ability of a test compound to reverse the hyperactive swimming behavior induced by scopolamine is thus a measure of the central cholinergic activity of the compound.

The subject of experiment [4] is patients clinically diagnosed as having presenile primary degenerative dementia. The following applies: cited from earlier work.
Experiment [5] concerns Aged humans and nonhuman primates. As to conditions: aged humans and nonhuman primates with decreased cognition; cited from earlier work.

Turning to `Nc1ccncc1N` [3,4-diaminopyridine], in experiment [1], the age-related cognitive deficits result was “ameliorate age-related cognitive deficits”.
For `C#CCON=CC1CN2CCC1CC2` (stereo not drawn) [R1 = Hydrogen, R2 = 2-Propynyl, 1-Azabicyclo[2.2.2]octane-3-carboxaldehyde, O-2-propynyloxime], the IC50 (in general, the concentration that gives 50% inhibition) in experiment [2] was 27 nM; in experiment [3] it was 348 nM.
In the case of `C=CCON=CC1CN2CCC1CC2` (stereo not drawn) [R1 = Hydrogen, R2 = Allyl, 1-Azabicyclo[2.2.2]octane-3-carboxaldehyde, O-2-propenyloxime], the IC50 in experiment [2] stood at 117 nM; in experiment [3], 146 nM.
Regarding `CON=CC1CN2CCC1CC2` (stereo not drawn) [R1 = Hydrogen, R2 = Methyl, 1-Azabicyclo[2.2.2]octane-3-carboxaldehyde, O-methyloxime], in the experiment with laboratory rats (Rattus norvegicus, PO, laboratory rats, read-out: ED50 required to demonstrate reversal of the scopolamine-induced hyperactive swimming activity), the ED50 (in general, the dose that gives a 50% effect, or the effect in half of the subjects) was 1.8 mg/kg. Also, the results for the concentration for half-maximal inhibition (IC50) in experiment [2] and in experiment [3] were 11.8 nM and 1360 nM, respectively.
On to `C#CCON=C(C)C1CN2CCC1CC2` (stereo not drawn) [R1 = Methyl, R2 = 2-Propynyl, Ethanone,1-(1-Azabicyclo[2.2.2]oct-3-yl)-, O-2-propynyloxime], for which, in experiment [2], the “% Inhib. RCMD” value is recorded as 78%. In addition, in experiment [3], the “% Inhib. RQNB” value was 81%.
As for `CON=C(C)C1CN2CCC1CC2` (stereo not drawn) [R1 = Methyl, R2 = Methyl, Ethanone,1-(1-Azabicyclo[2.2.2]oct-3-yl)-, O-methyloxime], the “% Inhib. RCMD” value in experiment [2] was determined as 90%. In addition, the “% Inhib. RQNB” value in experiment [3] was 54%.
With `COC(=O)C1=CCCN(C)C1` [arecoline, methyl ester of 1,2,5,6-tetrahydro-1-methyl-3-pyridinecarboxylic acid], the “reversal of scopolamine-induced swimming hyperactivity” value with laboratory rats is “can be reversed”. In addition, the “test of picture recognition” value in experiment [4] (double blind study) was “Significant improvement”. Moreover, the “amelioration of symptoms of cognitive disorders” value in experiment [4] (patients with presenile primary degenerative dementia) is recorded as “effective in ameliorating some of the symptoms of cognitive disorders”.
Take `CNC(=O)Oc1ccc2c(c1)[C@]1(C)CCN(C)[C@@H]1N2C` [physostigmine]: in the experiment on laboratory rats, the “reversal of scopolamine-induced swimming hyperactivity” value is given as “can be reversed”. The memory result in experiment [5] was “improved memory”.
Consider `CN1[C@@H]2C[C@@H](OC(=O)[C@H](CO)c3ccccc3)C[C@H]1[C@@H]1O[C@@H]12` [scopolamine], for which, in the experiment with laboratory rats (scopolamine 0.1 mg/kg, five minute test period), the “increase of swimming distance above baseline values” is given as 75-125%.
